The results in this text go back to patent publication US20160346320A1, “SUBSTANCE FOR INHIBITING TISSUE CALCIFICATION, TISSUE FIBROSATION AND AGE-RELATED DISEASES” (Fresenius Kabi Deutschland GmbH, priority 2013, published 2016).

For one assay, the system named is SOX9. Description: SOX9 expression in HAoSMCs, quantitative RT-PCR. Format: cell-based, human. To be noted: NH4Cl 500 μM. The method, then:
(§1) The following experimental studies were executed: Primary human aortic smooth muscle cells (HAoSMCs, Invitrogen) were cultivated in Waymouth's MB 752/1 medium and Ham's F12 nutrient mixture (1:1, Gibco, Life Technologies) with the addition of 10% FBS (Gibco, Life Technologies). In all experiments, confluent HAoSMCs, passages 4 to 11, were used. The cells were treated for 24 hours with 2 mM β-glycerophosphate (Sigma-Aldrich) with or without simultaneous addition of 0.5 mM ammonium salts or 100 μM chloroquine diphosphate (Sigma-Aldrich). Quantitative RT-PCR (real time polymerase chain reaction) were carried out, as described previously (Voelkl, J., Alesutan, I., Leibrock, C. B., Quintanilla-Martinez, L., Kuhn, V., Feger, M., Mia, S., Ahmed, M. S., Rosenblatt, K. P., Kuro, O., Lang, F.: Spironolactone ameliorates PIT1-dependent vascular osteoinduction in klotho-hypomorphic mice. J. Clin Invest 2013; February 1; 123(2):812-22). For this, HAoSMCs were washed and total RNA were isolated using Trifast reagent (Peqlab) according to the directions from the manufacture. […] The total RNA were likewise isolated with Trifast reagent (Peqlab) in accordance with the directions from the manufacture. In each case, 2 μg RNA of the human as well as the murine samples were used for the reverse transcription of the RNA with oligo(dT)12-18 primers (Invitrogen) and SuperScripIII Reverse Transcriptase (Invitrogen). Quantitative real-time PCR were carried out with an iCycler iQ™ Real-Time PCR Detection System (Bio-Rad Laboratories) and iQ™ Sybr Green Supermix (Bio-Rad Laboratories) according to the manufacturer's instructions. The following primers were used (5′ orientation): […]
(§2) The specificity of the PCR products was checked by means of melting curve analysis and agarose gel electrophoresis. All PCRs were each carried out twice, and the multiple mRNA quantities were calculated by means of the […] methods with GAPDH as the internal reference.

Assay [1] concerns NFAT5. As to the kind of experiment: NFAT5 expression in aortas of klotho mice. Format: in vivo. The following applies: NH4Cl 0.28 M in drinking water.
The next assay relates to Runx2 mRNA. The format is cell-based, human.
The test system of a further assay is TGFβ1 mRNA. The format is cell-based, human.
A short description of assay [2]: growth and body weight of klotho mice. The following applies: for body weight / growth deficit: NH4Cl 0.28 M or acetazolamide 800 mg/l in drinking water. The format is in vivo.
The test system of assay [3] is alkaline phosphatase (ALP) mRNA. The format is cell-based, human.
Assay [4] concerns NFAT5. Description: NFAT5 expression in HAoSMCs, quantitative RT-PCR. The following applies: NH4Cl 500 μM. Format: cell-based, human. As for the experimental part:
as §1, §2

Assay [5] is described as follows: blood chemistry: plasma concentrations in klotho mice. The format is in vivo. To be noted: NH4Cl 0.28 M or acetazolamide 800 mg/l in drinking water.
The mark [6] stands for this setting: HAoSMCs transfected with NFAT5, 2 mM β-glycerophosphate.
Where [7] appears, read: HAoSMCs transfected with empty vectors, 2 mM β-glycerophosphate.
[8] abbreviates: HAoSMCs, 2 mM β-glycerophosphate.

“Also recorded” adds a separate entry of the source.

Regarding `Cl.N` [ammonium chloride, Ammonium chloride], the “expression of SOX9” value is recorded as “prevents the effect of NH4Cl; also recorded: remained high” with SOX9 (setting [6]) and “sink back to a normal level” in the assay on SOX9 (setting [7]). Besides, the “transcription level of SOX9” value in the assay on SOX9 (setting [8]) was “reduced the expression”. Further, the “expression of NFAT5 in aortas” value in the assay with NFAT5 [1] is “normalization of the transcription level”. For the same molecule, the “Runx2 mRNA expression increase” value in the assay with Runx2 mRNA was “inhibit the expression; also recorded: suppressed”. Moreover, in the assay on TGFβ1 mRNA, the “TGFβ1 mRNA expression increase” value was “inhibit the formation of TGFβ1; also recorded: prevented”. For the same molecule, in assay [2], the body weight entry is recorded as “nearly entirely neutralize the weight deficiency”. Besides, the growth deficit entry in assay [2] is reported as “nearly entirely neutralized”. Also, the growth entry in assay [2] (wild mice (klotho^+/+), NH4Cl 0.28 M in drinking water) is reported as “no growth stimulation”. Moreover, in assay [3], the “ALP mRNA expression increase” value is “reduce the expression; also recorded: suppression of the expression increase”. The entries for the “expression of NFAT5” value in the assay on NFAT5 [4] (setting [6]) and in the assay with NFAT5 [4] (setting [7]) were “remained high” and “sink back to a normal level”, respectively. Moreover, the “transcription level of NFAT5” value in the assay with NFAT5 [4] (setting [8]) was “reduced the expression; also recorded: reverse the increase”.

Turning to `N.N.O=S(=O)(O)O` [ammonium sulfate, Ammonium sulfate], the “Runx2 mRNA expression increase” value with Runx2 mRNA was “inhibit the expression; also recorded: suppressed”. Also, the “TGFβ1 mRNA expression increase” value with TGFβ1 mRNA is “inhibit the formation of TGFβ1; also recorded: lessened”. Also, the “ALP mRNA expression increase” value in assay [3] is “reduce the expression; also recorded: suppression of the expression increase”.

With `CCN(CC)CCCC(C)Nc1ccnc2cc(Cl)ccc12` (racemic) [chloroquine, (RS)—N′-(7-chloroquinoline-4-yl)-N,N-diethyl-pentane-1,4-diamine], in assay [3], the “ALP mRNA expression increase” value was “reduce the expression; also recorded: suppression of the ALP mRNA expression increase”.

As to Ammonium citrate, the “TGFβ1 mRNA expression increase” value with TGFβ1 mRNA is “inhibit the formation of TGFβ1; also recorded: lessened”.

As to `CC(=O)Nc1nnc(S(N)(=O)=O)s1` [acetazolamide], the “concentration of matrix gla protein (MGP) in plasma” value in assay [5] is “fully normalize”. For the same molecule, in assay [2], the body weight result is “could be increased” and the growth deficit entry is given as “could not be fully compensated”.

`CC(O)C(=O)O.N` (stereo not shown) [ammonium lactate, Ammonium lactate]: the “TGFβ1 mRNA expression increase” value in the assay on TGFβ1 mRNA is on record as “inhibit the formation of TGFβ1; also recorded: lessened”.
